Assay results reported in US20240216395A1, “19-NOR C3,3-DISUBSTITUTED C21 -N-PYRAZOLYL STEROID FOR USE IN TREATING MAJOR DEPRESSIVE DISORDER AND […]” (priority 2021, published 2024).

Legend:
patients with MDD [1] = assay: Phase 2 clinical trial of Compound (1) 30 mg in MDD (NCT03000530): TEAEs; assay type: in vivo, human
Source text: (§1) The study design and results, if applicable, of the clinical trials identified by the NCT numbers are each incorporated by reference herein in its entirety.
(§2) The majority of patients receiving Compound (1) and experiencing a TEAE reported TEAEs mild and moderate in severity: clinical trial of Example 4 94%, Phase 2 clinical trial conducted by Applicant 100%, previous Phase 3 clinical trial conducted by Applicant 98%, and clinical trial of Example 1 95.0%.

patients with MDD [2] = assay: Phase 3 clinical trial of Compound (1) 30 mg in MDD : TEAEs; assay type: in vivo, human; conditions: previous Phase 3 clinical trial
Source text: as §1, §2

[3] = system: nondependent, recreational users of CNS depressants; assay: Abuse potential main study, treatment phase: TEAEs; assay type: in vivo, human
Procedure: The main study consisted of 4 phases (FIG. 30B). The screening phase was a 1-day visit occurring within 21 days of the beginning of the qualification phase. The qualification phase was a 4-day, inpatient period to ensure participants could discriminate between alprazolam (active comparator) and placebo, and that they could tolerate the alprazolam 2-mg doses. Participants received single-oral doses of alprazolam 2 mg and placebo in a crossover manner 24 hours apart, and if they could discriminate between the two medications, they continued to the treatment phase. The treatment phase was a double-blind, active- and placebo-controlled, 6-way crossover design where participants were randomized equally to a single oral dose of 1 of 6 treatments: placebo, alprazolam (1.5 and 3 mg), and Compound (1) (30, 60, and 90 mg). The Compound (1) doses were based on the results from the first part, dose selection, and treatments were separated by 7 days. The follow-up phase was a 1-day visit occurring 7 (2) days after the treatment phase.
Safety and tolerability endpoints included the frequency and severity of AEs and SAEs, the change from baseline in clinical laboratory assessments, vital signs, and ECG, and suicidality assessed by the Columbia-Suicide Severity Rating Scale (C-SSRS).
The dose selection safety set included all participants who received 1 dose of Compound (1). The main study qualification safety set included all participants who received ≥1 dose of alprazolam. For the treatment phase, the randomized set included all participants who were randomized and the safety set included all participants who received ≥1 dose of Compound (1) or alprazolam. The completer set included all participants in the randomized set who completed all treatment periods, had sufficient data for evaluation of the primary endpoint, and had ≥1 observation within 2 hours of Tmax for each treatment for Drug Liking VAS scores. […] The PK set included all participants in the treatment phase who received 1 dose of Compound (1) and had 1 PK sample after dosing.

[4] = system: nondependent, recreational users of CNS depressants; assay: Abuse potential main study, treatment phase: subjective VAS measures (Drug Liking, Overall Drug Liking, Take Drug Again, High, Good/Bad/Any Drug Effects, Alertness/Drowsiness, Drug Similarity)
[5] = treatment phase, Compound (1) 30 mg (n = 65)
[6] = treatment phase, Compound (1) 60 mg (n = 66)
[7] = treatment phase, Compound (1) 90 mg (n = 67)
[8] = Alprazolam 1.5 mg - Compound (1) 30 mg
[9] = Alprazolam 1.5 mg - Compound (1) 30 mg (relative abuse potential)
[10] = Alprazolam 1.5 mg - Compound (1) 60 mg
[11] = Alprazolam 1.5 mg - Compound (1) 60 mg (relative abuse potential)
[12] = Alprazolam 1.5 mg - Compound (1) 90 mg
[13] = Alprazolam 1.5 mg - Compound (1) 90 mg (relative abuse potential)
[14] = Alprazolam 3 mg - Compound (1) 30 mg
[15] = Alprazolam 3 mg - Compound (1) 30 mg (relative abuse potential)
[16] = Alprazolam 3 mg - Compound (1) 60 mg
[17] = Alprazolam 3 mg - Compound (1) 60 mg (relative abuse potential)
[18] = Alprazolam 3 mg - Compound (1) 90 mg
[19] = Alprazolam 3 mg - Compound (1) 90 mg (relative abuse potential)
[20] = Compound (1) 30 mg - placebo (absolute abuse potential)
[21] = Compound (1) 60 mg - placebo (absolute abuse potential)
[22] = Compound (1) 90 mg - placebo (absolute abuse potential)

C[C@@]1(O)CC[C@H]2[C@H](CC[C@@H]3[C@@H]2CC[C@]2(C)[C@@H](C(=O)Cn4cc(C#N)cn4)CC[C@@H]32)C1 [Compound (1), 1-(2-((3R,5R,8R,9R,10S,13S,14S,17S)-3-hydroxy-3,13-dimethylhexadecahydro-1H-cyclopenta[a]phenanthren-17-yl)-2-oxoethyl)-1H-pyrazole-4-carbonitrile]
Diarrhea (patients with MDD [1]; 30 mg (N = 45)): 0 n (%) | URTI (patients with MDD [1]; 30 mg (N = 45)): 0 n (%) | Patients with a TEAE whose TEAEs were mild and moderate in severity (patients with MDD [1]; Phase 2 clinical trial): 100% | Patients with a TEAE whose TEAEs were mild and moderate in severity (patients with MDD [2]): 98% | Severe TEAEs and deaths ([3]; 30, 60, 90 mg single doses): no reported severe TEAEs nor deaths | Back pain (TEAE) [3, 5]: 0 n | Confusional state (TEAE) [3, 5]: 0 n | Diarrhea (TEAE) [3, 5]: 0 n | Feeling drunk (TEAE) [3, 5]: 0 n | Fine motor skill dysfunction (TEAE) [3, 5]: 0 n | Hiccups (TEAE) [3, 5]: 0 n | Irritability (TEAE) [3, 5]: 0 n | Lacrimation increased (TEAE) [3, 5]: 0 n | Swelling face (TEAE) [3, 5]: 0 n | Tremor (TEAE) [3, 5]: 0 n | Upper respiratory tract infection (TEAE) [3, 5]: 0 n | Back pain (TEAE) [3, 6]: 0 n | Confusional state (TEAE) [3, 6]: 0 n | Fine motor skill dysfunction (TEAE) [3, 6]: 0 n | Hiccups (TEAE) [3, 6]: 0 n | Irritability (TEAE) [3, 6]: 0 n | Lacrimation increased (TEAE) [3, 6]: 0 n | Swelling face (TEAE) [3, 6]: 0 n | Upper respiratory tract infection (TEAE) [3, 6]: 0 n | Back pain (TEAE) [3, 7]: 0 n | Diarrhea (TEAE) [3, 7]: 0 n | Hiccups (TEAE) [3, 7]: 0 n | Lacrimation increased (TEAE) [3, 7]: 0 n | Upper respiratory tract infection (TEAE) [3, 7]: 0 n | Alert/Drowsiness VAS: time scores remained below neutral value of 50 ([4]; 30 mg): 6-7 hours postdose | Alert/Drowsiness VAS: time scores remained below neutral value of 50 ([4]; 60 and 90 mg): 8-10 hours postdose | Drug Liking Emax difference [4, 8]: 12.50 | Overall Drug Liking Emax difference [4, 8]: 13.92 | Take Drug Again Emax difference [4, 8]: 13.67 | Bad Drug Effects Emax difference [4, 9]: 0 | Good Drug Effects Emax difference [4, 9]: 24.62 | High Effects Emax difference [4, 9]: 24.59 | Drug Liking Emax difference [4, 10]: 2.00 | Overall Drug Liking Emax difference [4, 10]: 5.63 | Take Drug Again Emax difference [4, 10]: 0 | Bad Drug Effects Emax difference [4, 11]: 0 | Good Drug Effects Emax difference [4, 11]: 0.00 | High Effects Emax difference [4, 11]: 7.57 | Drug Liking Emax difference [4, 12]: −3.55 | Overall Drug Liking Emax difference [4, 12]: 1.12 | Take Drug Again Emax difference [4, 12]: 0 | Bad Drug Effects Emax difference [4, 13]: −12.93 | Good Drug Effects Emax difference [4, 13]: −12.00 | High Effects Emax difference [4, 13]: −12.00 | Drug Liking Emax difference [4, 14]: 14.00 | Overall Drug Liking Emax difference [4, 14]: 14.62 | Take Drug Again Emax difference [4, 14]: 16.43 | Bad Drug Effects Emax difference [4, 15]: 1.00 | Good Drug Effects Emax difference [4, 15]: 33.48 | High Effects Emax difference [4, 15]: 32.45 | Drug Liking Emax difference [4, 16]: 2.50 | Overall Drug Liking Emax difference [4, 16]: 6.33 | Take Drug Again Emax difference [4, 16]: 7.15 | Bad Drug Effects Emax difference [4, 17]: 1.00 | Good Drug Effects Emax difference [4, 17]: 7.50 | High Effects Emax difference [4, 17]: 15.42 | Drug Liking Emax difference [4, 18]: 0.00 | Overall Drug Liking Emax difference [4, 18]: 1.82 | Take Drug Again Emax difference [4, 18]: 0 | Bad Drug Effects Emax difference [4, 19]: −1.82 | Good Drug Effects Emax difference [4, 19]: −1.00 | High Effects Emax difference [4, 19]: −4.14 | Drug Liking Emax difference ([4]; Compound (1) 30 mg - placebo): 12.00 | Overall Drug Liking Emax difference ([4]; Compound (1) 30 mg - placebo): 6.50 | Take Drug Again Emax difference ([4]; Compound (1) 30 mg - placebo): 9.00 | Bad Drug Effects Emax difference [4, 20]: 0 | Good Drug Effects Emax difference [4, 20]: 19.98 | High Effects Emax difference [4, 20]: 19.21 | Drug Liking Emax difference ([4]; Compound (1) 60 mg - placebo): 18.12 | Overall Drug Liking Emax difference ([4]; Compound (1) 60 mg - placebo): 16.75 | Take Drug Again Emax difference ([4]; Compound (1) 60 mg - placebo): 18.57 | Bad Drug Effects Emax difference [4, 21]: 0 | Good Drug Effects Emax difference [4, 21]: 40.53 | High Effects Emax difference [4, 21]: 36.23 | Drug Similarity: Benzodiazepines Similarity median score ([4]; Compound (1) 90 mg): 92.5 | Drug Similarity: Opioids Similarity median score ([4]; Compound (1) 90 mg): 39.0 | Drug Liking Emax difference ([4]; Compound (1) 90 mg - placebo): 25.00 | Overall Drug Liking Emax difference ([4]; Compound (1) 90 mg - placebo): 21.27 | Take Drug Again Emax difference ([4]; Compound (1) 90 mg - placebo): 24.50 | Bad Drug Effects Emax difference [4, 22]: 0 | Good Drug Effects Emax difference [4, 22]: 59.00 | High Effects Emax difference [4, 22]: 55.80 | Drug Similarity: Placebo Similarity median score ([4]; all dosages, 12 hours postdose): zero
